This note sets out measurements from patent publication US12559492B2, “BRAF degraders” (C4 Therapeutics, Inc., priority 2020, dated 2026).

For this test, the target named is BRAF^V600E protein (Homo sapiens, UniProt P15056, V600E). Description: HiBiT cellular BRAF V600E degradation assay. It is filed as cell-based. The settings on record: 24 h incubation; for DC50: A375.10 cells (HiBiT tag knocked in at N-terminal of BRAF V600E), concentration at which 50% of total cellular BRAF V600E is degraded; for Emax: read-out: HiBit 24 h Emax.
[1] abbreviates: A375.10 cells, Emax = amount of residual protein remaining in the cell after compound treatment.

Each structure is given as a SMILES string. Counter-ions that a name gives are not always drawn.

Sequence of BRAF^V600E protein (P15056 whole entry V600E): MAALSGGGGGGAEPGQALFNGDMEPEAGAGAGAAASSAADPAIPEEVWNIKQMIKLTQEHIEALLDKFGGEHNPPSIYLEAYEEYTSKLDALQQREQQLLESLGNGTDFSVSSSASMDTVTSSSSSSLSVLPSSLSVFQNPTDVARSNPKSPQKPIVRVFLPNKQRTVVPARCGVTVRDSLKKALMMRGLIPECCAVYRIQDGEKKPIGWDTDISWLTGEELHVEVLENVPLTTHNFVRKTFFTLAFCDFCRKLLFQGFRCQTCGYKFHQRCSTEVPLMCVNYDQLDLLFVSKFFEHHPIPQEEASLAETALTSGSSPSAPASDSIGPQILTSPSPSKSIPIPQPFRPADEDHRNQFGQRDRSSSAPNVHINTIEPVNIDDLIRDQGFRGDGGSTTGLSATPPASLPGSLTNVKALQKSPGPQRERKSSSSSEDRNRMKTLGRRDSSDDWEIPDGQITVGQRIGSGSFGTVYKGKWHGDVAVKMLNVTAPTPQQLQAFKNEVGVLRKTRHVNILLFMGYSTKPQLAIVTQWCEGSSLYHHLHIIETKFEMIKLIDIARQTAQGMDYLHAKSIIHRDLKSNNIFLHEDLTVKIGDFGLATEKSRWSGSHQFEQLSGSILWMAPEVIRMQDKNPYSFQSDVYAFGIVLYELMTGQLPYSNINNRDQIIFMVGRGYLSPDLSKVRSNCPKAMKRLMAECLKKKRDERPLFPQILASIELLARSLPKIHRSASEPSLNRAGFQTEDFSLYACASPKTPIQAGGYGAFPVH

For the compound `CCN(C)S(=O)(=O)Nc1ccc(F)c(C(=O)c2c[nH]c3ncc(-c4ccc(N5CCN(CCN6CCC(c7ccc(NC8CCC(=O)NC8=O)cc7)CC6)CC5)nc4)cc23)c1F` (stereo not shown) [Example 143, 5-[6-[4-[2-[4-[4-[(2,6-dioxo-3-piperidyl)amino]phenyl]-1-piperidyl]ethyl]piperazin-1-yl]-3-pyridyl]-3-[3-[[ethyl(methyl)sulfamoyl]amino]-2,6-difluoro-benzoyl]-1H-pyrrolo[2,3-b]pyridine], the DC50 was found to be 4.04 nM. Further, the Emax under setting [1] is 11.5%.

As for `CCN(C)S(=O)(=O)Nc1ccc(F)c(C(=O)c2c[nH]c3ncc(C#Cc4ccc(C(=O)NCCN5CCC(c6ccc(NC7CCC(=O)NC7=O)cc6)CC5)cc4)cc23)c1F` (stereo not shown) [Example A86, N-[2-[4-[4-[(2,6-Dioxopiperidin-3-yl)amino]phenyl]piperidin-1-yl]ethyl]-4-[2-[3-[3-[[ethyl(methyl)sulfamoyl]amino]-2,6-difluorobenzoyl]-1H-pyrrolo[2,3-b]pyridin-5-yl]ethynyl]benzamide], it took 32 nM to reach half-maximal degradation (DC50). For the same compound, the maximal response (Emax) under setting [1] was determined as 23%.

`CCN(C)S(=O)(=O)Nc1ccc(F)c(C(=O)c2c[nH]c3ncc(C#CC4CCN(C(=O)CN5CCC(c6ccc(NC7CCC(=O)NC7=O)cc6F)CC5)CC4)cc23)c1F` (stereo not shown) [Example 124, 5-[2-[1-[2-[4-[4-[(2,6-dioxo-3-piperidyl)amino]-2-fluoro-phenyl]-1-piperidyl]acetyl]-4-piperidyl]ethynyl]-3-[3-[[ethyl(methyl)sulfamoyl]amino]-2,6-difluoro-benzoyl]-1H-pyrrolo[2,3-b]pyridine] showed a DC50 of 22.1 nM. Moreover, under setting [1], the maximum response (Emax) turned out to be 13%.

`CCN(C)S(=O)(=O)Nc1ccc(F)c(C(=O)c2c[nH]c3ncc(-c4cnc(N5CCN(C(=O)CN6CCC(c7ccc(N8CCC(=O)NC8=O)cc7F)CC6)CC5)nc4)cc23)c1F` [Example 44, 5-[2-[4-[2-[4-[4-(2,4-dioxohexahydropyrimidin-1-yl)-2-fluoro-phenyl]-1-piperidyl]acetyl]piperazin-1-yl]pyrimidin-5-yl]-3-[3-[[ethyl(methyl)sulfamoyl]amino]-2,6-difluoro-benzoyl]-1H-pyrrolo[2,3-b]pyridine] yielded a DC50 of 41.3 nM. The Emax under setting [1] turned out to be 13.2%.

With `CCN(C)S(=O)(=O)Nc1cccc(C(=O)c2c[nH]c3ncc(-c4cnc(N5CCN(C(=O)CC6(O)CCN(c7ccc(NC8CCC(=O)NC8=O)cc7F)CC6)CC5)nc4)cc23)c1F` (stereo not shown) [Example 101, 5-[2-[4-[2-[1-[4-[(2,6-dioxo-3-piperidyl)amino]-2-fluoro-phenyl]-4-hydroxy-4-piperidyl]acetyl]piperazin-1-yl]pyrimidin-5-yl]-3-[3-[[ethyl(methyl)sulfamoyl]amino]-2-fluoro-benzoyl]-1H-pyrrolo[2,3-b]pyridine], half-maximal degradation (DC50) was put at 3.38 nM. For the same compound, under setting [1], the Emax worked out at 10.2%.

`CCN(C)S(=O)(=O)Nc1ccc(F)c(C(=O)c2c[nH]c3ncc(-c4ccc(N5CCC(NCC(=O)N6CCC(c7ccc(NC8CCC(=O)NC8=O)cc7)CC6)CC5)cc4)cc23)c1F` (stereo not shown) [Example A98, 5-[4-[4-[[2-[4-[4-[(2,6-Dioxopiperidin-3-yl)amino]phenyl]piperidin-1-yl]-2-oxoethyl]amino]piperidin-1-yl]phenyl]-3-[3-[[ethyl(methyl)sulfamoyl]amino]-2,6-difluorobenzoyl]-1H-pyrrolo[2,3-b]pyridine; hydrochloride] had a DC50 of 12 nM. Besides, under setting [1], the Emax was determined as 12%.

In turn, `CCN(C)S(=O)(=O)Nc1ccc(F)c(C(=O)c2c[nH]c3ncc(-c4ccc(N5CCN(C(=O)CC6(O)CCN(c7cc(F)c(N8CCC(=O)NC8=O)cc7Cl)CC6)CC5)nc4)cc23)c1F` [Example 215, 5-[6-[4-[2-[1-[2-chloro-4-(2,4-dioxohexahydropyrimidin-1-yl)-5-fluoro-phenyl]-4-hydroxy-4-piperidyl]acetyl]piperazin-1-yl]-3-pyridyl]-3-[3-[[ethyl(methyl)sulfamoyl]amino]-2,6-difluoro-benzoyl]-1H-pyrrolo[2,3-b]pyridine] yielded a DC50 of 2.71 nM. Moreover, the Emax under setting [1] came to 7.87%.

As for `CCN(C)S(=O)(=O)Nc1ccc(F)c(C(=O)c2c[nH]c3ncc(-c4cnc(N5CCN(C(=O)CC6CCN(c7ccc8c(C9CCC(=O)NC9=O)nn(C)c8c7)CC6)CC5)nc4)cc23)c1F` (stereo not shown) [Example 47, 3-(2,6-dioxo-3-piperidyl)-6-[4-[2-[4-[5-[3-[3-[[ethyl(methyl)sulfamoyl]amino]-2,6-difluoro-benzoyl]-1H-pyrrolo[2,3-b]pyridin-5-yl]pyrimidin-2-yl]piperazin-1-yl]-2-oxo-ethyl]-1-piperidyl]-1-methyl-indazole], it took 5.38 nM to reach half-maximal degradation (DC50). Further, the Emax under setting [1] turned out to be 19.3%.

Compound `CCN(C)S(=O)(=O)Nc1ccc(F)c(C(=O)c2c[nH]c3ncc(-c4ccc(N5CCC(NCC(=O)N6CCC(c7ccc(OC8CCC(=O)NC8=O)cn7)CC6)CC5)cc4)cc23)c1F` (stereo not shown) [Example A97, 5-[4-[4-[[2-[4-[5-(2,6-Dioxopiperidin-3-yl)oxypyridin-2-yl]piperidin-1-yl]-2-oxoethyl]amino]piperidin-1-yl]phenyl]-3-[3-[[ethyl(methyl)sulfamoyl]amino]-2,6-difluorobenzoyl]-1H-pyrrolo[2,3-b]pyridine;hydrochloride] registered a DC50 of 84 nM. Under setting [1], the Emax was determined as 12%.

`CCN(C)S(=O)(=O)Nc1ccc(F)c(C(=O)c2c[nH]c3ncc(-c4ccc(N5CCN(C(=O)CC6(O)CCN(c7cc(F)c(N8CCC(=O)NC8=O)cc7F)CC6)CC5)nc4)cc23)c1F` [Example 220, 5-[6-[4-[2-[1-[4-(2,4-dioxohexahydropyrimidin-1-yl)-2,5-difluoro-phenyl]-4-hydroxy-4-piperidyl]acetyl]piperazin-1-yl]-3-pyridyl]-3-[3-[[ethyl(methyl)sulfamoyl]amino]-2,6-difluoro-benzoyl]-1H-pyrrolo[2,3-b]pyridine] displayed a DC50 of 1.45 nM. The Emax under setting [1] is 7.62%.

`CCN(C)S(=O)(=O)Nc1ccc(F)c(C(=O)c2c[nH]c3ncc(-c4cnc(N5CCC(OCC6CCN(c7ccc(NC8CCC(=O)NC8=O)cc7F)CC6)CC5)nc4)cc23)c1F` (stereo not shown) [Example 182, 5-[2-[4-[[1-[4-[(2,6-dioxo-3-piperidyl)amino]-2-fluoro-phenyl]-4-piperidyl]methoxy]-1-piperidyl]pyrimidin-5-yl]-3-[3-[[ethyl(methyl)sulfamoyl]amino]-2,6-difluoro-benzoyl]-1H-pyrrolo[2,3-b]pyridine] had a half-maximal degradation concentration (DC50) of 17.9 nM. Besides, the Emax under setting [1] worked out at 7.7%.

`CCN(C)S(=O)(=O)Nc1ccc(F)c(C(=O)c2c[nH]c3ncc(-c4ccc(CN5CCN(C(=O)CN6CCN(c7ccc(NC8CCC(=O)NC8=O)cc7)CC6)CC5)nc4)cc23)c1F` (stereo not shown) [Example A12, 5-[6-[[4-[2-[4-[4-[(2,6-Dioxopiperidin-3-yl)amino]phenyl]piperazin-1-yl]acetyl]piperazin-1-yl]methyl]pyridin-3-yl]-3-[3-[[ethyl(methyl)sulfamoyl]amino]-2,6-difluorobenzoyl]-1H-pyrrolo[2,3-b]pyridine] yielded a DC50 of 74 nM. The Emax under setting [1] was found to be 24%.

For the compound `CCN(C)S(=O)(=O)Nc1ccc(F)c(C(=O)c2c[nH]c3ncc(-c4ccc(N5CCN(C(=O)CN6CCC(n7cc(NC8CCC(=O)NC8=O)cn7)CC6)CC5)cc4)cc23)c1F` (stereo not shown) [Example A80, 5-[4-[4-[2-[4-[4-[(2,6-Dioxopiperidin-3-yl)amino]pyrazol-1-yl]piperidin-1-yl]acetyl]piperazin-1-yl]phenyl]-3-[3-[[ethyl(methyl)sulfamoyl]amino]-2,6-difluorobenzoyl]-1H-pyrrolo[2,3-b]pyridine], the DC50 amounted to 27.5 nM. Also, under setting [1], the Emax stood at 21.6%.

Compound `CCN(C)S(=O)(=O)Nc1ccc(F)c(C(=O)c2c[nH]c3ncc(-c4cnc(N5CC[C@H](C(=O)N6CCC(c7ccc(NC8CCC(=O)NC8=O)cc7)CC6)C5)nc4)cc23)c1F` (stereo partly drawn) [Example 130, 5-[2-[(3S)-3-[4-[4-[(2,6-dioxo-3-piperidyl)amino]phenyl]piperidine-1-carbonyl]pyrrolidin-1-yl]pyrimidin-5-yl]-3-[3-[[ethyl(methyl)sulfamoyl]amino]-2,6-difluoro-benzoyl]-1H-pyrrolo[2,3-b]pyridine] yielded a DC50 of 9.73 nM. Further, the Emax under setting [1] was 12.9%.

With `CCN(C)S(=O)(=O)Nc1ccc(F)c(C(=O)c2c[nH]c3ncc(-c4cnc(N5CCN(C(=O)CN6CCC(c7ccc(NC8CCC(=O)NC8=O)cn7)CC6)CC5)nc4)cc23)c1F` (stereo not shown) [Example 21, 5-[2-[4-[2-[4-[5-[(2,6-dioxo-3-piperidyl)amino]-2-pyridyl]-1-piperidyl]acetyl]piperazin-1-yl]pyrimidin-5-yl]-3-[3-[[ethyl(methyl)sulfamoyl]amino]-2,6-difluoro-benzoyl]-1H-pyrrolo[2,3-b]pyridine], the DC50 is 7.1 nM. Besides, the Emax under setting [1] was 11.9%.

`CCN(C)S(=O)(=O)Nc1ccc(F)c(C(=O)c2c[nH]c3ncc(C#Cc4ccc(C(=O)N5CCC(N6CCC(c7ccc(NC8CCC(=O)NC8=O)cc7)CC6)CC5)cc4)cc23)c1F` (stereo not shown) [Example A83, 5-[2-[4-[4-[4-[4-[(2,6-Dioxopiperidin-3-yl)amino]phenyl]piperidin-1-yl]piperidine-1-carbonyl]phenyl]ethynyl]-3-[3-[[ethyl(methyl)sulfamoyl]amino]-2,6-difluorobenzoyl]-1H-pyrrolo[2,3-b]pyridine] returned a DC50 of 6.97 nM. For the same compound, under setting [1], the Emax was 8.89%.

With `CCN(C)S(=O)(=O)Nc1ccc(F)c(C(=O)c2c[nH]c3ncc(-c4ccc(N5CCN(C(=O)CN6CCC(c7ccc(NC8CCC(=O)NC8=O)cc7)CC6)CC5)cc4)cc23)c1F` (stereo not shown) [Example 84, 5-[4-[4-[2-[4-[4-[(2,6-dioxo-3-piperidyl)amino]phenyl]-1-piperidyl]acetyl]piperazin-1-yl]phenyl]-3-[3-[[ethyl(methyl)sulfamoyl]amino]-2,6-difluoro-benzoyl]-1H-pyrrolo[2,3-b]pyridine], it took 3.14 nM to reach half-maximal degradation (DC50). Under setting [1], the “HiBit 24 h Emax” value is listed as 9.62%.
